We go through one compound from PMC5023640, “Purification and characterization of an extracellular β-xylosidase from Pseudozyma hubeiensis NCIM 3574 (PhXyl), an unexplored yeast” (AMB Express, 2016).

This assay concerns the target T1, PhXyl (extracellular β-xylosidase) (Pseudozyma hubeiensis, UniProt R9NZV8).
T1 construct: gene PHSY_001848; native extracellular enzyme purified from culture supernatant
T1 sequence (R9NZV8 24-873): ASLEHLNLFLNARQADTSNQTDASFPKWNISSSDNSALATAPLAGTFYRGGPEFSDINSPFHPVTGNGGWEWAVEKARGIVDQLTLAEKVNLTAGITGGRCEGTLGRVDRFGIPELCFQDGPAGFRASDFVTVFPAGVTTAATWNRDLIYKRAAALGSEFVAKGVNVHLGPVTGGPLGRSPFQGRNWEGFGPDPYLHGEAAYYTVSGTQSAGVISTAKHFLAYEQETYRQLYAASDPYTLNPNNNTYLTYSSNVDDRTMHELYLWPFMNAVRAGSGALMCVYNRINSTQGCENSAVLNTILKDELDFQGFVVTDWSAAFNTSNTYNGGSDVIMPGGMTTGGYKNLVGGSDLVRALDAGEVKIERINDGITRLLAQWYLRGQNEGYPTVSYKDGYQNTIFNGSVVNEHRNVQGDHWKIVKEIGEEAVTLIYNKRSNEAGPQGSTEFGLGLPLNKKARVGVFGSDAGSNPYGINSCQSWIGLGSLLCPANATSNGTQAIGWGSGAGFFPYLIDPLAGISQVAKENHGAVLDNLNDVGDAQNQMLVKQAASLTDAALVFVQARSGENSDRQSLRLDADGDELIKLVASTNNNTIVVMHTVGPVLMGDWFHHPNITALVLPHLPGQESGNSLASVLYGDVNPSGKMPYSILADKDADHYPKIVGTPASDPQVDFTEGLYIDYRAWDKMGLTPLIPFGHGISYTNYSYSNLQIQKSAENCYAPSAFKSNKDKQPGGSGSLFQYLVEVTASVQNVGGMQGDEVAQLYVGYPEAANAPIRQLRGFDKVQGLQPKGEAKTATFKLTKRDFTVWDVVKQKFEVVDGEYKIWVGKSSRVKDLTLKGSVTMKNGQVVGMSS
The assay can be described thus: inhibition of pNPX hydrolysis. It counts as biochemical. The following applies: read-out: % activity at 75 mM.

On to `OC1OC[C@@H](O)[C@H](O)[C@H]1O` (stereo partly shown) [xylose], for which the activity at 75000 µM came out at 50%.
